# Reference: paper PMC11963983 (2025)
# Test system: ΔSite1-PK-riboCdA (RNA, riboswitch) GGGAAGACAAACAUGCCGAAUCCGAAAGGUACCGAGGAACCGCUUUUUGGCGCUAAUCUGCUGUGAAGCAGCAGUAGGGAUACCUUCUGUCCCGCGCGCGACAGCUAACUCGGGAGGGCAUAAAGGAAGGAGAUUUGCAGUG
# Experiment: smFRET, high-FRET
# Conditions: 50 mM Na+, 0.75 mM Mg2+; 10 mM Tris-HCl pH 8.0, room temperature
structure (smiles),measurement,value
Nc1ncnc2c1ncn2[C@@H]1O[C@@H]2COP(=O)(O)O[C@H]3[C@@H](O)[C@H](n4cnc5c(N)ncnc54)O[C@@H]3COP(=O)(O)O[C@H]2[C@H]1O,EC50,~ 78.9 μM
